ChEMBL document CHEMBL5226385, “The Antiangiogenic and Antitumor Effects of Scoparasin B in Non-Small-Cell Lung Cancer” (J Nat Prod, 2023)
The source made the active and inactive calls.

Experiments:
[1] = tested on: NCI-H1299; assay: […] of E-Cadherin protein expression in human NCI-H1299 cells at 5 to 15 nM incubated for 24 hrs by western blot analysis; type: functional, cell-based; details: dose 5-15 nM
[2] = tested on: HMEC-1; assay: Antiangiogenic activity against human HMEC-1 cells assessed as inhibition of capillary tube-like structure formation at 15 nM incubated for 6 hrs by Matrigel based analysis; type: functional; parameters: scale not given: the % may be the effect or the level left
[3] = tested on: HBVP; assay: Inhibition of cell adhesion in human HBVP cells assessed as reduction in cell adhesion number at 5 to 15 nM pretreated with compound for 24 hrs followed by culturing for 1 hr by crystal violet staining based inverted microscopic analysis; type: functional; details: dose 5-15 nM, time 25.0 hrs
[4] = tested on: HUVEC; assay: Downregulation of VEGF-A protein expression in human HUVEC cells at 5 to 15 nM incubated for 36 hrs by western blot analysis; type: functional, cell-based; details: dose 5-15 nM
[5] = tested on: NCI-H1299; assay: Inhibition of vasculogenic-mimicry in human NCI-H1299 cells assessed as inhibition of cell invasion at 5 to 15 nM measured after 24 hrs by Transwell invasion assay; type: functional, cell-based; details: dose 5-15 nM
[6] = tested on: NCI-H1299; assay: Antitumor activity against human NCI-H1299 cells xenografted in BALB/c nude mouse assessed as increase in tumor necrotic areas at 0.75 to 1.5 mg/kg, ip administered every other day for 20 days by Hematoxylin and eosin staining based inverted microscopic analysis; type: functional, organism-based; details: dose 0.75-1.5 mg/kg, time 20.0 day
[7] = Toxicity against BALB/c nude mouse xenografted with human NCI-H1299 cells assessed as morphological changes in lungs at 0.75 to 1.5 mg/kg, ip administered every other day for 20 days by Hematoxylin and eosin staining based inverted microscopic analysis; type: organism-based; details: in vivo, 480 h, dose 0.75-1.5 mg/kg, time 20 day
[8] = tested on: NCI-H1299; assay: Antitumor activity against human NCI-H1299 cells xenografted in BALB/c nude mouse assessed as reduction in Ki67 expression in tumor at 0.75 to 1.5 mg/kg, ip administered every other day for 20 days by immunohistochemical analysis; type: functional, organism-based; details: dose 0.75-1.5 mg/kg, time 20.0 day
[9] = tested on: HMEC-1; assay: Antiangiogenic activity against human HMEC-1 cells assessed as inhibition of cell invasion measured after 24 hrs by Transwell invasion assay; type: functional, cell-based; details: dose 5-15 nM
[10] = tested on: NCI-H1299; assay: Downregulation of MMP9 mRNA expression in human NCI-H1299 cells at 5 to 15 nM incubated for 24 hrs by qPCR analysis; type: functional, cell-based; details: dose 5-15 nM
[11] = tested on: HUVEC; assay: Inhibition of VEGF-A secretion in human HUVEC cells incubated for 36 hrs by ELISA; type: functional, cell-based; details: dose 5-15 nM
[12] = tested on: HMEC-1; assay: Antiangiogenic activity against human HMEC-1 cells assessed as inhibition of cell migration measured after 8 hrs by scratch wound healing assay; type: functional, cell-based; details: dose 5-15 nM
[13] = biological target: Platelet-derived growth factor receptor beta (Homo sapiens) (UniProt P09619); assay: Inhibition of PDGF-BB-mediated PDGFR-beta signaling axis in human HBVP cells assessed as inhibition of PDGFR-beta phosphorylation at Tyr857 residue at 5 to 15 nM incubated for 24 hrs by western blot analysis; type: cell-based; details: dose 5-15 nM
[14] = tested on: NCI-H460; assay: Cytotoxicity against human NCI-H460 cells assessed as reduction in cell viability measured after 72 hrs by MTT assay; type: functional, cell-based; details: NCI-H460, 72 h
[15] = tested on: NCI-H1299; assay: Antitumor activity against human NCI-H1299 cells xenografted in BALB/c nude mouse assessed as reduction in tumor weight at 0.75 to 1.5 mg/kg, ip administered every other day for 20 days; type: functional, organism-based; details: dose 0.75-1.5 mg/kg, time 20.0 day
[16] = tested on: NCI-H1299; assay: Cytotoxicity against human NCI-H1299 cells assessed as reduction in cell viability at 25 nM incubated for 48 hrs by CCK8 assay; type: toxicity, cell-based; details: nci-h1299, 48 h, 0.025 µM
[17] = tested on: Mus musculus; assay: Inhibition of tumor angiogenesis in BALB/c nude mouse xenografted with human NCI-H1299 cells assessed as reduction in microvessel density of the tumor at 0.75 to 1.5 mg/kg, ip administered every other day for 20 days by CD31 staining based immunohistochemical analysis; type: functional, organism-based; details: dose 0.75-1.5 mg/kg, time 20.0 day
[18] = tested on: NCI-H1299; assay: Antitumor activity against human NCI-H1299 cells xenografted in BALB/c nude mouse assessed as tumor volume at 1.5 mg/kg, ip administered every other day for 20 days by vernier caliper analysis (reference value: 1206.46 +/-332.44 mm3); type: functional; details: time 20 day
[19] = tested on: HUVEC; assay: Antiangiogenic activity against human HUVEC cells assessed as inhibition of cell migration measured after 24 hrs by Transwell migration assay; type: functional, cell-based; details: dose 5-15 nM
[20] = tested on: HMEC-1; assay: Inhibition of VEGF-A secretion in human HMEC-1 cells incubated for 36 hrs by ELISA; type: functional, cell-based; details: dose 5-15 nM
[21] = tested on: HBVP; assay: Inhibition of PDGF-BB protein expression in human HBVP cells at 5 to 15 nM incubated for 24 hrs by western blot analysis; type: functional, cell-based; details: dose 5-15 nM
[22] = tested on: HBVP; assay: Inhibition of PDGF-BB mRNA expression in human HBVP cells at 5 to 15 nM incubated for 24 hrs by qPCR analysis; type: functional, cell-based; details: dose 5-15 nM
[23] = tested on: NCI-H1299; assay: Downregulation of Snail mRNA expression in human NCI-H1299 cells at 5 to 15 nM incubated for 24 hrs by qPCR analysis; type: functional, cell-based; details: dose 5-15 nM
[24] = tested on: NCI-H1299; assay: Downregulation of N-Cadherin protein expression in human NCI-H1299 cells at 5 to 15 nM incubated for 24 hrs by western blot analysis; type: functional, cell-based; details: dose 5-15 nM
[25] = tested on: Mus musculus; assay: Inhibition of tumor angiogenesis in BALB/c nude mouse xenografted with human NCI-H1299 cells assessed as reduction in […] cells in tumor at 1.5 mg/kg, ip administered every other day for 20 days by immunohistochemical analysis; type: functional, organism-based; details: time 20.0 day
[26] = tested on: NCI-H1299; assay: Downregulation of Snail protein expression in human NCI-H1299 cells at 5 to 15 nM incubated for 24 hrs by western blot analysis; type: functional, cell-based; details: dose 5-15 nM
[27] = tested on: NCI-H1299; assay: Downregulation of Vimentin protein expression in human NCI-H1299 cells at 5 to 15 nM incubated for 24 hrs by western blot analysis; type: functional, cell-based; details: dose 5-15 nM
[28] = Toxicity against BALB/c nude mouse xenografted with human NCI-H1299 cells assessed as change in body weight at 0.75 to 1.5 mg/kg, ip administered every other day for 20 days; type: organism-based; details: in vivo, 480 h, dose 0.75-1.5 mg/kg, time 20 day
[29] = tested on: HUVEC; assay: Cytotoxicity against human HUVEC cells assessed as reduction in cell proliferation upto 25 nM measured after 48 hrs by CCK8 assay; type: toxicity, cell-based; details: 0.025 µM
[30] = biological target: Vascular endothelial growth factor receptor 2 (Homo sapiens) (UniProt P35968); assay: Inhibition of VEGF-A-mediated VEGFR2 signaling pathway in human HMEC-1 cells assessed as reduction in mTOR phosphorylation at Ser2448 residue at 5 to 15 nM incubated for 36 hrs by western blot analysis; type: cell-based; details: dose 5-15 nM
[31] = biological target: Vascular endothelial growth factor receptor 2 (Homo sapiens) (UniProt P35968); assay: Inhibition of VEGF-A-mediated VEGFR2 signaling pathway in human HUVEC cells assessed as reduction in FAK phosphorylation at Tyr397 residue at 5 to 15 nM incubated for 36 hrs by western blot analysis; type: cell-based; details: dose 5-15 nM
[32] = tested on: NCI-H1299; assay: Downregulation of MMP9 protein expression in human NCI-H1299 cells at 5 to 15 nM incubated for 24 hrs by western blot analysis; type: functional, cell-based; details: dose 5-15 nM
[33] = tested on: NCI-H1299; assay: Antitumor activity against human NCI-H1299 cells xenografted in BALB/c nude mouse assessed as tumor volume at 0.75 mg/kg, ip administered every other day for 20 days by vernier caliper analysis (reference value: 1206.46 +/-332.44 mm3); type: functional; details: time 20 day
[34] = tested on: HMEC-1; assay: Antiangiogenic activity against human HMEC-1 cells assessed as inhibition of capillary tube-like structure formation incubated for 6 hrs by Matrigel based analysis; type: functional, cell-based; details: dose 5-20 nM

Sequence of Vascular endothelial growth factor receptor 2 (Homo sapiens) (P35968 whole entry): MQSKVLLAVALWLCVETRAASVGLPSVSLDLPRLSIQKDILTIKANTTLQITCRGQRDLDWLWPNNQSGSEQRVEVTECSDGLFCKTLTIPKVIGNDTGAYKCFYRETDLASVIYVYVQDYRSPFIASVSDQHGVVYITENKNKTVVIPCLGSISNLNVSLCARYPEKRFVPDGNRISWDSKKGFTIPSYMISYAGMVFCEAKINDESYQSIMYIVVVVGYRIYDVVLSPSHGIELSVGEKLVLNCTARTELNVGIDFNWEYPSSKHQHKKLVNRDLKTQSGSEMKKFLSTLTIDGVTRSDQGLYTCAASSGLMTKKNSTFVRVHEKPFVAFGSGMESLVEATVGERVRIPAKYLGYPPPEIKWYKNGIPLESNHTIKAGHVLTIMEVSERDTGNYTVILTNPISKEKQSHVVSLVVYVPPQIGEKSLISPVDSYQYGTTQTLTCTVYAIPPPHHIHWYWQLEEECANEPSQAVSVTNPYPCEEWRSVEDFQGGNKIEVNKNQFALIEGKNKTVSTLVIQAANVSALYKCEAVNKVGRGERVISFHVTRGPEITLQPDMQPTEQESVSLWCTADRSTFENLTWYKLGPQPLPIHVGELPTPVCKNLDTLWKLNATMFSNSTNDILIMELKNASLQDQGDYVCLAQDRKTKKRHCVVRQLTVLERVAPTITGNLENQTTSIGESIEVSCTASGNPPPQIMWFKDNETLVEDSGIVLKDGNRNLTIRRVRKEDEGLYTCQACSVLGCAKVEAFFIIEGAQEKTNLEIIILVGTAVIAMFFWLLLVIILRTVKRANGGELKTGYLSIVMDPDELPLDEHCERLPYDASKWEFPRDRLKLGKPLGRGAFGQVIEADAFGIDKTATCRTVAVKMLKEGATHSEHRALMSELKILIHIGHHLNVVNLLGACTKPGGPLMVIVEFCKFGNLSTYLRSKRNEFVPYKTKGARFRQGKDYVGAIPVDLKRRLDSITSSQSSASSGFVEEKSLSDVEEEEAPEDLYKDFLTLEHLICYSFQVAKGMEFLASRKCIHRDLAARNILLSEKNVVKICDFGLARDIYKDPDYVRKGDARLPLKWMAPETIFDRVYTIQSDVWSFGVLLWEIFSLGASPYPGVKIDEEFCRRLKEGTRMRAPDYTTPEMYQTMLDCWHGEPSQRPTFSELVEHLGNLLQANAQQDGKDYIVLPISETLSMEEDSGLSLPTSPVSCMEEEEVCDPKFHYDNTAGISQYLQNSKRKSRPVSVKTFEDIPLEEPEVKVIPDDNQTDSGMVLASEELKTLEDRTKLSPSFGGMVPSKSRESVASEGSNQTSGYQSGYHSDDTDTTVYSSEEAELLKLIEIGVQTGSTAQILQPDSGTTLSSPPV
Sequence of Platelet-derived growth factor receptor beta (Homo sapiens) (P09619 whole entry): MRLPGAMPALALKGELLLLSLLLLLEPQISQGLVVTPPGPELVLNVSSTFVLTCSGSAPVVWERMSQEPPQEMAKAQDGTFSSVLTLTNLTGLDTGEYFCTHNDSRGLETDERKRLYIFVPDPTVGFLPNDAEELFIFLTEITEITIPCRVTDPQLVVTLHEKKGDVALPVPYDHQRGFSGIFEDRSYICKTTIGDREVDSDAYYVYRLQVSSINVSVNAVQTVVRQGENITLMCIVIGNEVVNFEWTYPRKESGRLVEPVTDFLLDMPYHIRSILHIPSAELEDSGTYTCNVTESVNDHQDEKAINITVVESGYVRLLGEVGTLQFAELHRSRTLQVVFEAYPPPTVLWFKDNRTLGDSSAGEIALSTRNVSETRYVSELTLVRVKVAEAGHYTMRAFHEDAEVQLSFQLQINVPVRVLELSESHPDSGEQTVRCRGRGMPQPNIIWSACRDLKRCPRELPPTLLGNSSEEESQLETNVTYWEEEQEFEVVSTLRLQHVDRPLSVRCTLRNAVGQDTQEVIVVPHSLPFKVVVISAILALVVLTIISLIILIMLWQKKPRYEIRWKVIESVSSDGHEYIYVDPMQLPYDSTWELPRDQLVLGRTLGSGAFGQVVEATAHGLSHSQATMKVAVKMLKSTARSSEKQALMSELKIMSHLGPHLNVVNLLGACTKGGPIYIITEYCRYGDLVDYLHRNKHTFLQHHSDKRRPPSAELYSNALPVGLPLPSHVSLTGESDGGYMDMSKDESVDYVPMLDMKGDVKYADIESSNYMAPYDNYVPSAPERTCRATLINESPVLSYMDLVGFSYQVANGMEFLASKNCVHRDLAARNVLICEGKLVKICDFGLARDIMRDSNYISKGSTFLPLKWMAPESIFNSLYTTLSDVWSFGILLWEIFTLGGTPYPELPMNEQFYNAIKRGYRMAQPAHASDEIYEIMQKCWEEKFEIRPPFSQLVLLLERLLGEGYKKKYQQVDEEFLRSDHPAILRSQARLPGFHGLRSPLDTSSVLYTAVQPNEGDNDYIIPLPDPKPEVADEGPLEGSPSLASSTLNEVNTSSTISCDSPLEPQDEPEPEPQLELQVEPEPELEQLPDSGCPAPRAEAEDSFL

COc1ccc(C[C@@H]2NC(=O)[C@@]34OC(=O)O/C=C/[C@@](C)(O)C(=O)[C@@H](C)C/C=C/[C@H]3[C@H](O)[C@](C)(O)[C@@H](C)[C@@H]24)cc1 [SCOPARASIN B]
190.09 mm3: Activity [18]
active: inhibition [1] | inhibition [3] | inhibition [4] | inhibition [5] | Activity [6] | Activity [8] | Activity [9] Dose-Dependent Effect | inhibition [10] | inhibition [11] Dose-Dependent Effect | Activity [12] Dose-Dependent Effect | inhibition [13] | Activity [15] | inhibition [17] | Activity [19] Dose-Dependent Effect | inhibition [20] Dose-Dependent Effect | inhibition [21] | inhibition [22] | inhibition [23] | inhibition [24] | inhibition [25] | inhibition [26] | inhibition [27] | inhibition [30] | inhibition [31] | inhibition [32] | Activity [34] Dose-Dependent Effect
559.86 mm3: Activity [33]
Non-Toxic: Activity [7] | Activity [16] | Activity [28] | Activity [29]
100%: Activity [2]
3.9 µM: IC50 [14]
